In ChEMBL document CHEMBL5634182, “Antifungal Pseuboyenes A-J, Bergamotene-Derived Sesquiterpenoids from a Cold-Seep-Derived Pseudallescheria boydii” (J Nat Prod, 2024):

How the values were obtained:
Coniella diplodiella = assay: Antifungal activity against Coniothyrium diplodiella QDAU-7 assessed as reduction in microbial growth by broth microdilution method; format: functional
Fusarium graminearum = assay: Antifungal activity against Fusarium graminearum QDAU-4 assessed as reduction in microbial growth by broth microdilution method; format: functional
Penicillium digitatum = assay: Antifungal activity against Penicillium digitatum QDAU-14 assessed as reduction in microbial growth by broth microdilution method; format: functional
Alternaria brassicae = assay: Antifungal activity against Alternaria brassicae QDAU-16 assessed as reduction in microbial growth by broth microdilution method; format: functional
[1] = system: Botryosphaeria berengeriana; assay: Antifungal activity against Physalospora piricola QDAU-15 assessed as reduction in microbial growth by broth microdilution method; format: functional
[2] = system: Colletotrichum gloeosporioides; assay: Antifungal activity against Colletotrichum gloeosporioides QDAU-17 assessed as reduction in microbial growth by broth microdilution method; format: functional
[3] = system: Ceratobasidium cornigerum; assay: Antifungal activity against Ceratobasidium cornigerum QDAU-6 assessed as reduction in microbial growth by broth microdilution method; format: functional
[4] = system: Colletotrichum gloeosporioides; assay: Antifungal activity against Colletotrichum gloeosporioides QDAU-2 assessed as reduction in microbial growth by broth microdilution method; format: functional
Fusarium oxysporum = assay: Antifungal activity against Fusarium oxysporum QDAU-8 assessed as reduction in microbial growth by broth microdilution method; format: functional
Curvularia spicifera = assay: Antifungal activity against Curvularia spicifera QDAU-18 assessed as reduction in microbial growth by broth microdilution method; format: functional
Fusarium proliferatum = assay: Antifungal activity against Fusarium proliferatum QDAU-19 assessed as reduction in microbial growth by broth microdilution method; format: functional
Vibrio vulnificus = assay: Antibacterial activity against Vibrio vulnificus QDIO-10 assessed as reduction in microbial growth by broth microdilution method; format: functional
Pseudomonas aeruginosa = assay: Antibacterial activity against Pseudomonas aeruginosa QDIO-4 assessed as reduction in microbial growth by broth microdilution method; format: functional
Edwardsiella tarda = assay: Antibacterial activity against Edwardsiella tarda QDIO-2 assessed as reduction in microbial growth by broth microdilution method; format: functional
Escherichia coli = assay: Antibacterial activity against Escherichia coli EMBLC-1 assessed as reduction in microbial growth by broth microdilution method; format: functional
Vibrio harveyi = assay: Antibacterial activity against Vibrio harveyi QDIO-7 assessed as reduction in microbial growth by broth microdilution method; format: functional
Vibrio anguillarum = assay: Antibacterial activity against Vibrio anguillarum QDIO-6 assessed as reduction in microbial growth by broth microdilution method; format: functional
Micrococcus luteus = assay: Antibacterial activity against Micrococcus luteus QDIO-3 assessed as reduction in microbial growth by broth microdilution method; format: functional
L02 = assay: Cytotoxicity against human L02 cells assessed as reduction in cell viability at 20 uM; format: functional, cell-based
PaTu 8988t = assay: Cytotoxicity against human PaTu 8988t cells assessed as reduction in cell viability at 20 uM; format: functional, cell-based
A673 = assay: Cytotoxicity against human A673 cells assessed as reduction in cell viability at 20 uM; format: functional, cell-based
SF-126 = assay: Cytotoxicity against human SF-126 cells assessed as reduction in cell viability at 20 uM; format: functional, cell-based
A-375 = assay: Cytotoxicity against human A-375 cells assessed as reduction in cell viability at 20 uM; format: functional, cell-based
786-0 = assay: Cytotoxicity against human 786-0 cells assessed as reduction in cell viability at 20 uM; format: functional, cell-based
HOS = assay: Cytotoxicity against human HOS cells assessed as reduction in cell viability at 20 uM; format: functional, cell-based
HeLa = assay: Cytotoxicity against human HeLa cells assessed as reduction in cell viability at 20 uM; format: functional, cell-based
HEK-293T = assay: Cytotoxicity against human HEK293T cells assessed as reduction in cell viability at 20 uM; format: toxicity, cell-based
MKN-45 = assay: Cytotoxicity against human MKN-45 cells assessed as reduction in cell viability at 20 uM; format: functional, cell-based
DU-145 = assay: Cytotoxicity against human DU-145 cells assessed as reduction in cell viability at 20 uM; format: functional, cell-based
A549 = assay: Cytotoxicity against human A549 cells assessed as reduction in cell viability at 20 uM; format: functional, cell-based
HepG2 = assay: Cytotoxicity against human HepG2 cells assessed as reduction in cell viability at 20 uM; format: functional, cell-based
HCT-116 = assay: Cytotoxicity against human HCT-116 cells assessed as reduction in cell viability at 20 uM; format: functional, cell-based
GBC-SD = assay: Cytotoxicity against human GBC-SD cells assessed as reduction in cell viability at 20 uM; format: functional, cell-based
5637 = assay: Cytotoxicity against human 5637 cells assessed as reduction in cell viability at 20 uM; format: functional, cell-based
K562 = assay: Cytotoxicity against human K562 cells assessed as reduction in cell viability at 20 uM; format: functional, cell-based
MCF7 = assay: Cytotoxicity against human MCF7 cells assessed as reduction in cell viability at 20 uM; format: functional, cell-based
CAL-62 = assay: Cytotoxicity against human CAL-62 cells assessed as reduction in cell viability at 20 uM; format: functional, cell-based
TE-1 = assay: Cytotoxicity against human TE-1 cells assessed as reduction in cell viability at 20 uM; format: functional, cell-based

SMILES | MIC (Coniella diplodiella) [µg/mL] | MIC (Fusarium graminearum) [µg/mL] | MIC (Penicillium digitatum) [µg/mL] | MIC (Alternaria brassicae) [µg/mL] | MIC [1] [µg/mL] | MIC [2] [µg/mL] | MIC [3] [µg/mL] | MIC [4] [µg/mL] | MIC (Fusarium oxysporum) [µg/mL] | MIC (Curvularia spicifera) [µg/mL] | MIC (Fusarium proliferatum) [µg/mL] | MIC (Vibrio vulnificus) [µg/mL] | MIC (Pseudomonas aeruginosa) [µg/mL] | MIC (Edwardsiella tarda) [µg/mL] | MIC (Escherichia coli) [µg/mL] | MIC (Vibrio harveyi) [µg/mL] | MIC (Vibrio anguillarum) [µg/mL] | MIC (Micrococcus luteus) [µg/mL] | also measured
C=C1[C@H](O)C[C@H]2C[C@@H]1[C@](C)([C@H](O)CC=C(C)C)O2 | 4 | 2 | 8 | 8 | 8 | 2 | 4 | 4 | 2 | 8 | 16 |  |  |  |  |  |  |  | 
C=C1CC[C@@]2(O)C[C@@H]1[C@]2(C)CC(=O)C=C(C)C | 4 | 4 | 4 | 1 | 16 | 8 | 4 | 8 | 8 | 2 | 8 | 8 | 32 | > 64 | > 64 | 16 | > 64 | 16 | 
C=C1CC[C@@]2(C[C@@H](O)C(=O)OC)C[C@@H]1[C@](C)([C@H](O)CC=C(C)C)O2 | 4 | 4 | 8 | 8 | 64 | 64 | 64 | 4 | 16 | 4 | 4 | 64 | > 64 | > 64 | > 64 | > 64 | 16 | > 64 | 
C=C1CC[C@H](O)C[C@@H]1[C@H](C)C(=O)[C@H](O)C=C(C)C |  |  |  |  |  |  |  |  |  |  |  | > 64 | > 64 | > 64 | 8 | > 64 | 32 | > 64 | Activity (L02): Not toxic; Activity (PaTu 8988t): Not toxic; Activity (A673): Not toxic; Activity (SF-126): Not toxic; Activity (A-375): Not toxic; Activity (786-0): Not toxic; Activity (HOS): Not toxic; Activity (HeLa): Not toxic; Activity (HEK-293T): Non-Toxic; Activity (MKN-45): Not toxic; Activity (DU-145): Not toxic; Activity (A549): Not toxic; Activity (HepG2): Not toxic; Activity (HCT-116): Not toxic; Activity (GBC-SD): Not toxic; Activity 5637: Not toxic; Activity (K562): Not toxic; Activity (MCF7): Not toxic; Activity (CAL-62): Not toxic; Activity (TE-1): Not toxic
C=C1CC[C@@]2(O)C[C@@H]1[C@]2(C)[C@H](OC(C)=O)C(=O)C=C(C)C | 4 | 2 | 8 | 4 | 32 | 16 | 8 | 4 | 16 | 1 | 2 |  |  |  |  |  |  |  | 
C=C1CC[C@H](O)C[C@@H]1[C@@](C)(O)C(=O)/C=C/C(C)(C)O |  |  |  |  |  |  |  |  |  |  |  | 64 | > 64 | 16 | > 64 | > 64 | > 64 | > 64 | 
C[C@@H]1[C@H](O)[C@@H](C)/C=C/C=C/C=C/C=C/C=C/C=C/C=C/[C@H](O[C@@H]2O[C@H](C)[C@@H](O)[C@H](N)[C@@H]2O)C[C@@H]2O[C@](O)(C[C@@H](O)C[C@@H](O)[C@H](O)CC[C@@H](O)C[C@@H](O)CC(=O)O[C@H]1C)C[C@H](O)[C@H]2C(=O)O [AMPHOTERICIN B] | 0.5 | 2 | 4 | 0.5 | 8 | 8 | 8 | 2 | 4 | 0.5 | 1 |  |  |  |  |  |  |  | 
C=C1CC[C@@]2(O)C[C@@H]1[C@]2(C)[C@@H](CC=C(C)C)OC(C)=O | 4 | 2 | 8 | 8 | 32 | 16 | 4 | 4 | 16 | 1 | 2 | > 64 | > 64 | 4 | 8 | 16 | > 64 | > 64 | 
O=C(N[C@H](CO)[C@H](O)c1ccc([N+](=O)[O-])cc1)C(Cl)Cl [CHLORAMPHENICOL] |  |  |  |  |  |  |  |  |  |  |  | 2 | 2 | 2 | 0.5 | 0.5 | 0.5 | 0.5 | 
C=C1C(=O)C[C@@]2(C)C[C@@H]1[C@](C)([C@H](O)CC=C(C)C)O2 | 4 | 1 | 4 | 4 | 4 | 8 | 8 | 4 | 4 | 8 | 16 |  |  |  |  |  |  |  | 
C=C1CC[C@H](O)C[C@@H]1[C@H](C)[C@H](O)C(=O)C=C(C)C |  |  |  |  |  |  |  |  |  |  |  | 2 | > 64 | > 64 | > 64 | > 64 | 64 | > 64 | 
